Test results from PubChem BioAssay AID330 (DTP/NCI, 2004).
Several values for one entry are separate records, joined by “and”; a condition that tells them apart may be missing. Identical values can stand only once. Toxic doses and inconclusive results are not listed. How the source made its calls: active means survival T/C of 150% or more; inactive means T/C below 125% in these data.

System: P388 leukemia ip, CD2F1 mice, survival T/C
Assay: NCI In Vivo Anticancer Drug Screen. Data for tumor model P388 Leukemia (intraperitoneal) in CD2F1 (CDF1) mice
Details: endpoint: median survival time, higher = longer survival
How it was run: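 Mice carrying the transplanted tumor received test compound or vehicle. Survival was recorded in each group, and the value is the treated-group measurement divided by that of the vehicle-treated control group.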

[1] = dose: 60.0 mg/kg/injection, schedule: Q01DX005 (ip), vehicle: saline with Tween-80
[2] = dose: 120.0 mg/kg/injection, schedule: Q01DX005 (ip), vehicle: saline with Tween-80
[3] = dose: 240.0 mg/kg/injection, schedule: Q01DX005 (ip), vehicle: saline with Tween-80
[4] = dose: 50.0 mg/kg/injection, schedule: Q01DX009 (ip), vehicle: Klucel (hydroxypropylcellulose) (HPC)
[5] = dose: 50.0 mg/kg/injection, schedule: Q01DX005 (ip), vehicle: saline with Tween-80
[6] = dose: 100.0 mg/kg/injection, schedule: Q01DX005 (ip), vehicle: saline with Tween-80
[7] = dose: 200.0 mg/kg/injection, schedule: Q01DX005 (ip), vehicle: saline with Tween-80
[8] = dose: 50.0 mg/kg/injection, schedule: Q01DX009 (ip), vehicle: saline with Tween-80

Measured: T/C

CCOC(=O)C(Cc1ccc(N(CCCl)CCCl)cc1)NC(=O)C(Cc1ccc([N+](=O)[O-])cc1)NC(C)=O (configuration not stated)
inactive: dose: 5.0 mg/kg/injection, schedule: Q04DX003 (ip), vehicle: water 91 % of control | dose: 10.0 mg/kg/injection, schedule: Q04DX003 (ip), vehicle: water 91 % of control | dose: 20.0 mg/kg/injection, schedule: Q04DX003 (ip), vehicle: water 90 % of control | dose: 40.0 mg/kg/injection, schedule: Q04DX003 (ip), vehicle: other 88 % of control | dose: 40.0 mg/kg/injection, schedule: Q04DX003 (ip), vehicle: water 98 % of control | dose: 80.0 mg/kg/injection, schedule: Q04DX003 (ip), vehicle: other 91 % of control | dose: 100.0 mg/kg/injection, schedule: Q04DX003 (ip), vehicle: other 90 % of control | dose: 160.0 mg/kg/injection, schedule: Q04DX003 (ip), vehicle: other 94 % of control | dose: 200.0 mg/kg/injection, schedule: Q04DX003 (ip), vehicle: other 102 % of control | dose: 400.0 mg/kg/injection, schedule: Q04DX003 (ip), vehicle: other 112 % of control

CSc1c(C)n2c3c(cccc13)CCC2
inactive: [1] 108 % of control | [2] 96 % of control | [3] 100 % of control

CCN(CC)Cc1c(C)[nH]c2c(ccc3cc4ccccc4cc32)c1=O
inactive: dose: 100.0 mg/kg/injection, schedule: Q04DX003 (ip), vehicle: Klucel (hydroxypropylcellulose) (HPC) 94 % of control | dose: 200.0 mg/kg/injection, schedule: Q04DX003 (ip), vehicle: Klucel (hydroxypropylcellulose) (HPC) 97 % of control | dose: 400.0 mg/kg/injection, schedule: Q04DX003 (ip), vehicle: Klucel (hydroxypropylcellulose) (HPC) 96 % of control

CCOC(=O)CSc1nnc(-c2cc(OC)c(OC)c(OC)c2)o1
inactive: dose: 100.0 mg/kg/injection, schedule: Q01DX001 (ip), vehicle: Klucel (hydroxypropylcellulose) (HPC) 98 % of control | dose: 200.0 mg/kg/injection, schedule: Q01DX001 (ip), vehicle: Klucel (hydroxypropylcellulose) (HPC) 104 % of control | dose: 400.0 mg/kg/injection, schedule: Q01DX001 (ip), vehicle: Klucel (hydroxypropylcellulose) (HPC) 92 % of control

CCCCCCCCCCCCCC[N+](C)([O-])CCCCCC[N+](C)([O-])CCCCCCCCCCCCCC (configuration not stated)
inactive: dose: 12.5 mg/kg/injection, schedule: Q01DX009 (ip), vehicle: Klucel (hydroxypropylcellulose) (HPC) 94 % of control | dose: 25.0 mg/kg/injection, schedule: Q01DX009 (ip), vehicle: Klucel (hydroxypropylcellulose) (HPC) 100 % of control | [4] 92 % of control and 93 % of control

O=c1oc2ccccc2cc1-c1ccc(Br)c2ccccc12
inactive: [4] 93 % of control | dose: 100.0 mg/kg/injection, schedule: Q01DX009 (ip), vehicle: Klucel (hydroxypropylcellulose) (HPC) 100 % of control | dose: 200.0 mg/kg/injection, schedule: Q01DX009 (ip), vehicle: Klucel (hydroxypropylcellulose) (HPC) 95 % of control

CCOC(=O)C(=CNc1cc(C)c2[nH]c3ccc(Cl)cc3c2c1C)C(=O)OCC
inactive: [1] 92 % of control | [2] 93 % of control | [3] 86 % of control and 94 % of control

COc1ccc2c(c1)CCC(C(O)C1(Sc3c(OC)cccc3OC)CC1)C2=O (configuration not stated)
inactive: [5] 100 % of control | [6] 100 % of control | [7] 100 % of control

CCCCCCCCCCCCCS
inactive: [8] 118 % of control | dose: 132.0 mg/kg/injection, schedule: Q04DX003 (ip), vehicle: saline with Tween-80 104 % of control

O=C(O)c1cccc(C(=O)O)c1S(=O)Cc1ccccc1 (configuration not stated)
inactive: [5] 102 % of control | [6] 93 % of control | [7] 105 % of control

CC(C#N)(C#N)N=Nc1ccc(Br)cc1
inactive: [5] 106 % of control | [6] 105 % of control

CC1CCC2N(C1)CC1C3(O)CC45OC6(O)C(O)CCC4(C)C6CCC5C3(O)CC(O)C1(O)C2(C)O (configuration not stated)
inactive: dose: 3.12 mg/kg/injection, schedule: Q01DX009 (ip), vehicle: saline with Tween-80 103 % of control | dose: 6.25 mg/kg/injection, schedule: Q01DX009 (ip), vehicle: saline with Tween-80 112 % of control | dose: 12.5 mg/kg/injection, schedule: Q01DX009 (ip), vehicle: saline with Tween-80 98 % of control | dose: 25.0 mg/kg/injection, schedule: Q01DX005 (ip), vehicle: saline 114 % of control | dose: 25.0 mg/kg/injection, schedule: Q01DX009 (ip), vehicle: saline with Tween-80 103 % of control | dose: 50.0 mg/kg/injection, schedule: Q01DX005 (ip), vehicle: saline 109 % of control | [8] 98 % of control | dose: 100.0 mg/kg/injection, schedule: Q01DX005 (ip), vehicle: saline 107 % of control

O=[N+]([O-])c1ccc2c(N=Nc3c(O)ccc4ccccc34)c(O)cc(S(=O)(=O)O)c2c1
inactive: dose: 100.0 mg/kg/injection, schedule: Q04DX003 (ip), vehicle: saline 100 % of control | dose: 132.0 mg/kg/injection, schedule: Q01DX009 (ip), vehicle: saline with Tween-80 109 % of control | dose: 200.0 mg/kg/injection, schedule: Q01DX009 (ip), vehicle: saline with Tween-80 109 % of control | dose: 200.0 mg/kg/injection, schedule: Q04DX003 (ip), vehicle: saline 100 % of control | dose: 300.0 mg/kg/injection, schedule: Q01DX009 (ip), vehicle: saline with Tween-80 113 % of control | dose: 400.0 mg/kg/injection, schedule: Q04DX003 (ip), vehicle: saline 111 % of control
